Data published in patent US20210070731A1, “TRICYCLIC KINASE INHIBITORS AND USE THEREOF” (priority 2019, published 2021).
Where a name gives a salt, the structure may show the parent alone.

Legend:
Assay type in all cases: biochemical
Conditions in all cases: 100 uM ATP, 3 hr incubation, four-parameter fit
[1] = biological target: T1, NUAK2 (Homo sapiens, UniProt Q9H093); assay: Phosphorylation assay ([γ-32P]-ATP, P81 paper), NUAK2
T1 construct: purchased SignalChem
T1 sequence (Q9H093 1-628): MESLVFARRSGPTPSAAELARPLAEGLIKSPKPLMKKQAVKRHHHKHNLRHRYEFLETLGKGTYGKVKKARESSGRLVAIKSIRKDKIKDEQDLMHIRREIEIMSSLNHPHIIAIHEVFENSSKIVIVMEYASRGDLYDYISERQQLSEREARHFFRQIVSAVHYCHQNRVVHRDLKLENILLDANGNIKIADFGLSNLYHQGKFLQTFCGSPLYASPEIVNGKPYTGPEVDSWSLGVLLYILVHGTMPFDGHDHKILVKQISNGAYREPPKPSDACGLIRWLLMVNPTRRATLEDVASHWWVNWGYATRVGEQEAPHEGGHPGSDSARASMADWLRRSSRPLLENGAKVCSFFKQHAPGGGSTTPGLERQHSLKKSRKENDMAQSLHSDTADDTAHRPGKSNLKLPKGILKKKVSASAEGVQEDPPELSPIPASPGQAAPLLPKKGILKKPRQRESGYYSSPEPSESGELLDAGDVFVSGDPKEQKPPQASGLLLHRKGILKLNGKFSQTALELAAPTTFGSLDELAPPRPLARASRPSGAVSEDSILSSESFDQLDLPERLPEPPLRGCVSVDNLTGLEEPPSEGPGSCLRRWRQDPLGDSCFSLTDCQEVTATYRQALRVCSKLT
Text: (§1) Kinase activity and inhibition can be measured using binding assays as well as phosphorylation assays. In the binding assays, e.g. KinaseSeeker (Luceome Biotechnologies, Tucson, Ariz.) or Kinomescan (Eurofins), the competitive displacement of a kinase active site binding probe by a compound is detected and serves as a measure of compound inhibition. In phosphorylation assays, e.g. radioactivity assays or ADP-Glo (Promega) assays, the phosphorylation of a peptide or protein substrate is used to evaluate enzyme activity, and the reduction of phosphorylation in presence of a compounds serves as a measure of compound inhibition. The inhibitor compounds described herein are screened in the following manner.
(§2) For phosphorylation assays, 30 ng of the active kinase (SignalChem) in kinase assay buffer was incubated with either inhibitor in DMSO or DMSO (no inhibitor control). Reaction was started by the addition of 10 mM magnesium sulfate, 100 uM [γ-^32P]-ATP and appropriate concentration of the relevant peptide substrate. After 3 hr incubation, the reaction was terminated by spotting 25 μl of the reaction mixture onto P81 paper strips. The paper strips were air dried, washed three times with 0.85% phosphoric acid and finally with acetone. The P81 paper was immersed in 10 mL of scintillation cocktail, and the radioactive counts were measured. For dose dependent curves, kinases were treated at varying concentrations of the compound in activity assays and IC50 values were determined using a four-parameter fit. The IC50 values against a select set of kinases is given below.

[2] = biological target: T2, NUAK1 (Homo sapiens, UniProt O60285); assay: Phosphorylation assay ([γ-32P]-ATP, P81 paper), NUAK1
T2 construct: purchased SignalChem
T2 sequence (O60285 1-661): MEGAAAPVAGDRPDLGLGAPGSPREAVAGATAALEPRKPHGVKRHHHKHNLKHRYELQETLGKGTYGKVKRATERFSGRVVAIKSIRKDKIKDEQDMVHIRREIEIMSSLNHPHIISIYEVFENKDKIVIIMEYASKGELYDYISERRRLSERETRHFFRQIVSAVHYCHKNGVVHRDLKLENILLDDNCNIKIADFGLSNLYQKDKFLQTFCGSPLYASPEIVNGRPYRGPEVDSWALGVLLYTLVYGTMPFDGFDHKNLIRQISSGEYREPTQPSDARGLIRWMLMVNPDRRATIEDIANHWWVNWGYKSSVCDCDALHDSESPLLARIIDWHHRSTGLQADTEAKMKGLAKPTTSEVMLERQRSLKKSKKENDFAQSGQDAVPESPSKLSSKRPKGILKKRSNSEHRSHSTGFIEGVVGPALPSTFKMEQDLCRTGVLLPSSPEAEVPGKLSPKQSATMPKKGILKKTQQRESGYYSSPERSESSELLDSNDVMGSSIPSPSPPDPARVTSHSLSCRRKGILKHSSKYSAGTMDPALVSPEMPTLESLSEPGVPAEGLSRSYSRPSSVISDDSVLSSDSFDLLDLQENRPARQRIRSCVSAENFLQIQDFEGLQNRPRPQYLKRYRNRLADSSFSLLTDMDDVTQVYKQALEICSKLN
Text: as §1, §2

[3] = biological target: T3, SIK2 (Homo sapiens, UniProt Q9H0K1); assay: Phosphorylation assay ([γ-32P]-ATP, P81 paper), SIK2
T3 construct: purchased SignalChem
Text: as §1, §2

[4] = biological target: T4, CLK1 (Homo sapiens, UniProt P49759); assay: Phosphorylation assay ([γ-32P]-ATP, P81 paper), CLK1
T4 construct: purchased SignalChem
Text: as §1, §2

[5] = biological target: T5, CLK2 (Homo sapiens, UniProt P49760); assay: Phosphorylation assay ([γ-32P]-ATP, P81 paper), CLK2
T5 construct: purchased SignalChem
Text: as §1, §2

T3 sequence (Q9H0K1 whole entry): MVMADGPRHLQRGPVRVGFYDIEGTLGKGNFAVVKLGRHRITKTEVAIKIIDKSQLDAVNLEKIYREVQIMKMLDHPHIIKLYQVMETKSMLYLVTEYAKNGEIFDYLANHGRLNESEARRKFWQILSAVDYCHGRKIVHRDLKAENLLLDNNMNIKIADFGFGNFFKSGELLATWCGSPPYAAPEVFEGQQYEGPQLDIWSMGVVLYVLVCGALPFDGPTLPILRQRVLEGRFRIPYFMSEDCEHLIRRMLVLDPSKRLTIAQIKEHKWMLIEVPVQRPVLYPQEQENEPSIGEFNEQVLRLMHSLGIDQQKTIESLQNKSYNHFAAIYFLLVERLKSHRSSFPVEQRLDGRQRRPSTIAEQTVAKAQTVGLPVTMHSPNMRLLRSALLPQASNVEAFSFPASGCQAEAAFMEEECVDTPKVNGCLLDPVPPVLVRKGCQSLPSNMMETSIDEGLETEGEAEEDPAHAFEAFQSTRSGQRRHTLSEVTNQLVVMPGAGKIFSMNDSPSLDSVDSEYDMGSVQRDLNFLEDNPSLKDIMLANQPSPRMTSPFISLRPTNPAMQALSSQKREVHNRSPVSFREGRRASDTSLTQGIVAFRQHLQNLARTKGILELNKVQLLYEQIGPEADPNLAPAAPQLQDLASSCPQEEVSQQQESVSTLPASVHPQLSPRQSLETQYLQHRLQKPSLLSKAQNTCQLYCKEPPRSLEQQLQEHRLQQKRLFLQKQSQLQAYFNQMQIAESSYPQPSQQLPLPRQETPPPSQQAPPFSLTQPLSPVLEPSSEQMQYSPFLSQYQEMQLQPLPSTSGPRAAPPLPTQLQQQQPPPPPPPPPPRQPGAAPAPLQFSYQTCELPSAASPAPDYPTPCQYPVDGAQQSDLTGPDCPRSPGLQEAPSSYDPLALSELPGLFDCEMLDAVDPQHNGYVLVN
T4 sequence (P49759 whole entry): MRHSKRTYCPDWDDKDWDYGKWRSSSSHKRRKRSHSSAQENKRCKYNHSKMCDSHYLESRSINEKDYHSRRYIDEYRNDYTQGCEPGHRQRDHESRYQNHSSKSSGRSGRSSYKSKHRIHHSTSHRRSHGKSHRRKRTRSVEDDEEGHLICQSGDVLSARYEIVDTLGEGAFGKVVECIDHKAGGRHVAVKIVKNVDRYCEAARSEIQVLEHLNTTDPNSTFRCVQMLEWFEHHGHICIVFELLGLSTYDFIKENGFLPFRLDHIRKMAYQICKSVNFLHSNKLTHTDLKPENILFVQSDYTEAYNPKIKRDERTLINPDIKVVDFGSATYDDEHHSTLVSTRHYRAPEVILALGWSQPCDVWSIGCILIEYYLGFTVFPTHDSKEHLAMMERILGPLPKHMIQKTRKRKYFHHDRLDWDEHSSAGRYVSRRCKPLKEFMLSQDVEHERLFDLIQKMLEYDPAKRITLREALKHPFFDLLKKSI
T5 sequence (P49760 whole entry): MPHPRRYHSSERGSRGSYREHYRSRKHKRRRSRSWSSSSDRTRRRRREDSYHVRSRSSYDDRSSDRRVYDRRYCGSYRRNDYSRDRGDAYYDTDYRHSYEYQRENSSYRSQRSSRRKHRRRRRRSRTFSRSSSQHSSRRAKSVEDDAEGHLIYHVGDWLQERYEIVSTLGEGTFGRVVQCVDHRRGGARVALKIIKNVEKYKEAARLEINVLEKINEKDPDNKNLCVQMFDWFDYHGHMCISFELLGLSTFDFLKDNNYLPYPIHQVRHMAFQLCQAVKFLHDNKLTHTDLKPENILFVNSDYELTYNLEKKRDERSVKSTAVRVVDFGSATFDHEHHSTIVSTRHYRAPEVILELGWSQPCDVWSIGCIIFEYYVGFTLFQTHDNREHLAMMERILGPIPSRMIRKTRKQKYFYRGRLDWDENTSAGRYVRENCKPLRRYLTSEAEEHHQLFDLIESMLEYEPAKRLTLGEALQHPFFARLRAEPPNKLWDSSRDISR

IC50 [1] [nM] | IC50 [2] [nM] | IC50 [3] [nM] | IC50 [4] [nM] | IC50 [5] [nM] | Structure (SMILES)
340 | 130 | 1500 | 57800 | 33000 | CN1C(=O)c2ccccc2N(C)c2cc(Nc3ccn(C4CCNCC4)n3)ncc21 [Compound 30, 5,11-dimethyl-3-((1-(piperidin-4-yl)-H-pyrazol-3-yl)amino)-5,11-dihydro-10H-benzo[e]pyrido[3,4-b][1,4]diazepin-10-one TFA Salt]
7000 | 1300 | 690 | > 50000 | 9500 | CN1Cc2cnc(Nc3ccn(C4CCNCC4)n3)cc2N(C)c2ccccc21 [Compound 24, 5,10-dimethyl-N-(1-(piperidin-4-yl)-1H-pyrazol-3-yl)-10,11-dihydro-5H-benzo[b]pyrido[4,3-e][1,4]diazepin-3-amine]
4600 | 1300 | 18600 | 2700 | 1500 | CN1Cc2ccccc2N(C)c2cc(Nc3ccn(C4CCNCC4)n3)ncc21 [Compound 14, 5,11-dimethyl-N-(1-(piperidin-4-yl)-1H-pyrazol-3-yl)-10,11-dihydro-5H-benzo[e]pyrido[3,4-b][1,4]diazepin-3-amine]
